Results: article PMC2779488, “Integrating In Silico and In Vitro Analysis of Peptide Binding Affinity to HLA-Cw*0102: A Bioinformatic Approach to the Prediction of New Epitopes” (PLoS ONE, 2009)
No end group written: not given here.

Biological target: HLA-Cw*0102 (Homo sapiens, UniProt P10321, A176E/A330V/A35S/A97T/C350S/D114A/D33F/L171W/L180R/L218V/M285V/M309V/M331V/P208H/Q277E/Q291P/R121W/R243W/R30K/S123C/S140Y/S297R/T329A/T363A/V272M/V319A)
Assay: FACS-based MHC stabilisation assay (peptide binding, T2 cells)
Details: not given

First: VIPMFSALS [VIPMFSALS]
Second: PQSQGVVES
The EC50 of the first is lower: 2.45 µM for the first, over 1000 µM for the second. The first is the more potent here.

Going from LITPKKIKP to LSPLTKGIL [L S P L T K G I L], the EC50 falls from over 1000 µM to 3.79 µM. The second is the more potent here.

LVSAGIRKV and DADDSHFVS [D A D D S H F V S] cannot be ordered by EC50: over 1000 µM for the first, over 1000 µM for the second.

IVRMYSPTS and CC(C)[C@H](NC(=O)[C@H](C)N)C(=O)N[C@@H](CC(=O)O)C(=O)N[C@@H](C)C(=O)N[C@@H](CC(=O)O)C(=O)N[C@@H](CC(=O)O)C(=O)N[C@@H](CO)C(=O)N[C@@H](Cc1c[nH]cn1)C(=O)N[C@@H](Cc1ccccc1)C(=O)O [A V D A D D S H F] cannot be ordered by EC50: over 1000 µM for the first, over 1000 µM for the second.

ADDSHFVSI [A D D S H F V S I] and NYTSLIHSL cannot be ordered by EC50: over 1000 µM for the first, over 1000 µM for the second.

IVIWGKTPK and EQFGNKTIV cannot be ordered by EC50: over 1000 µM for the first, over 1000 µM for the second.

KATSPIVPS [K A T S P I V P S] and VVPRRKAKI cannot be ordered by EC50: over 1000 µM for the first, over 1000 µM for the second.

Going from SLEECDSEL [S L E E C D S E L] to ILRRPTSPV [I L R R P T S P V], the EC50 falls from 375 µM to 7.96 µM (47-fold). The second is the more potent here.

FPISPIETV and NSTWSTEGS cannot be ordered by EC50: over 1000 µM for the first, over 1000 µM for the second.

First: ELIRTVRLI
Second: ATSPIVPSL [A T S P I V P S L]
The EC50 of the first is higher: over 1000 µM for the first, 4.15 µM for the second.

Compared with PVPLQLPPL, VDADDSHFV [V D A D D S H F V] is higher in EC50: 3.16 µM for the first, over 1000 µM for the second.

Compound NCPERIATL has an EC50 of 0.201 µM.

In the case of “I L S P L T K G I: initial-set nonamer, Table 1 No. 13”, the “pBL50(exp)” value is reported as 3.061.

With ILSRSKESV [I L S R S K E S V] the “pBL50 / binder class as quoted in text” value was “non-binder”.

Same assay, conditions: Table 3 newly-designed peptides; T2 cells, peptide 200-0.04 µM, 16 h 37°C, mAb VP6G3, flow cytometry; read-out: pBL50 (exp) (converted)

In order of rising EC50:
1. ACPERIITL  0.185 µM
2. NCPERIITA  0.257 µM

Same assay, conditions: Table 4 HIV-1 peptides; T2 cells, peptide 200-0.04 µM, 16 h 37°C, mAb VP6G3, flow cytometry; read-out: pBL50 (exp) (converted)

In order of falling EC50:
1. LTEEKIKAL [LTEEKIKAL]  5.19 µM
2. LLRWGFTTP  2.05 µM
3. ELQAIYLAL [ELQAIYLAL]  1.25 µM
4. IVTRIVELL  1.12 µM
5. LQILAIVAL [LQILAIVAL]  0.766 µM
6. FQSSMTKIL  0.701 µM
7. RVRQGYSPL  0.0866 µM
8. CAPAGFAIL  0.00987 µM

Same assay, conditions: pBL50(exp)

First: NCPARIITL
Second: EAPMWDHWL
The EC50 of the first is 4.3-fold lower: 0.114 µM for the first, 0.49 µM for the second. The first is the more potent here.

Compared with QYPKGDAWV, PLSPPKKKD [P L S P P K K K D] is lower in EC50: over 1000 µM for the first, 10.1 µM for the second. The second is the more potent here.

Compared with ECPQGITPV, GIPEPAHAY [G I P E P A H A Y] is higher in EC50: 0.109 µM for the first, over 1000 µM for the second.

Going from CMPDWLDRL to PLPSQAMDD [P L P S Q A M D D], the EC50 rises from 0.331 µM to over 1000 µM. The first is the more potent here.

Compared with NCAERIITL, LSPRSKESV [L S P R S K E S V] is 2.1-fold higher in EC50: 0.434 µM for the first, 0.91 µM for the second. The first is the more potent here.

Compared with FMPIMKNEV, NCPERIITL is 11-fold lower in EC50: 0.676 µM for the first, 0.0634 µM for the second.

First: ITPTGTHPL [I T P T G T H P L]
Second: ILSPRSESV [I L S P R S E S V]
The EC50 of the first is 9.3-fold lower: 0.283 µM for the first, 2.62 µM for the second. The first is the more potent here.

First: HNPGIATPV
Second: VAPQLTFGL
The EC50 of the first is 41-fold higher: 0.661 µM for the first, 0.0162 µM for the second. The second is the more potent here.

Compared with WRPDVNMQL, MQPSRGKTL is 17-fold lower in EC50: 2.88 µM for the first, 0.17 µM for the second.

Compared with NCPERAITL, DLLTSPDVG [D L L T S P D V G] is higher in EC50: 0.244 µM for the first, over 1000 µM for the second.

Compared with AQPQTTTPL [A Q P Q T T T P L], GADAEKPFY [G A D A E K P F Y] is higher in EC50: 0.122 µM for the first, over 1000 µM for the second.

Going from ILSPRKESV [I L S P R K E S V] to HMPDVGCIL, the EC50 falls from 17.2 µM to 0.178 µM (97-fold). The second is the more potent here.

First: ADAEKPFYV [A D A E K P F Y V]
Second: NCPEAIITL
The EC50 of the first is higher: over 1000 µM for the first, 0.193 µM for the second. The second is the more potent here.

First: ILSPSKESV [I L S P S K E S V]
Second: LSPPKKKDL [L S P P K K K D L]
The EC50 of the first is lower: 11.4 µM for the first, over 1000 µM for the second.

Compared with EFPWVFIEL, VAPWNSLSL [V A P W N S L S L] is 2-fold higher in EC50: 0.355 µM for the first, 0.703 µM for the second. The first is the more potent here.

AAPAYSRAL [A A P A Y S R A L] and KSPLDIVNL are within 1.5-fold of each other in EC50: 1.77 µM for the first, 1.91 µM for the second.

Going from NEPQRIEPL to CSCC[C@H](NC(=O)[C@H](C)NC(=O)[C@H](CCC(N)=O)NC(=O)[C@H](CO)NC(=O)[C@@H]1CCCN1C(=O)[C@@H](N)CC(C)C)C(=O)N[C@@H](CC(=O)O)C(=O)N[C@@H](CC(=O)O)C(=O)N[C@@H](CC(C)C)C(=O)O [L P S Q A M D D L], the EC50 rises from 0.0962 µM to over 1000 µM. The first is the more potent here.

First: WAPHTDTSL
Second: ILSRSKESV [I L S R S K E S V]
The EC50 of the first is lower: 0.0126 µM for the first, over 1000 µM for the second. The first is the more potent here.

Compared with WGPGIIWAL [WGPGIIWAL], NAPERIITL is 1200-fold lower in EC50: 3.63 µM for the first, 0.00314 µM for the second.

CC(C)C[C@H](NC(=O)[C@H](C)NC(=O)[C@@H]1CCCN1C(=O)[C@H](Cc1ccc(O)cc1)NC(=O)[C@H](CC(N)=O)NC(=O)CNC(=O)[C@@H]1CCCN1C(=O)[C@H](C)NC(=O)[C@@H](N)Cc1ccccc1)C(=O)O [F A P G N Y P A L] and NAPWAVTSL [N A P W A V T S L] are within 1.5-fold of each other in EC50: 0.189 µM for the first, 0.142 µM for the second.

CAPREPHVV and SWPMQFDAL [SWPMQFDAL] are within 1.5-fold of each other in EC50: 0.38 µM for the first, 0.269 µM for the second.

CC[C@H](C)[C@H](N)C(=O)N[C@@H](CC(C)C)C(=O)N[C@@H](CCCCN)C(=O)N[C@@H](CCC(=O)O)C(=O)N1CCC[C@H]1C(=O)N[C@H](C(=O)N[C@@H](Cc1cnc[nH]1)C(=O)NCC(=O)N[C@H](C(=O)O)C(C)C)C(C)C [I L K E P V H G V] and LLKLASPEL [L L K L A S P E L] cannot be ordered by EC50: over 1000 µM for the first, over 1000 µM for the second.

Going from YMTPSSRPL [Y M T P S S R P L] to EQPERYESV, the EC50 falls from over 1000 µM to 0.132 µM. The second is the more potent here.

Compared with LGPEKLQYL, LLTSPDVGL [L L T S P D V G L] is 77-fold higher in EC50: 0.151 µM for the first, 11.7 µM for the second. The first is the more potent here.

First: YMPTASCDL
Second: LTSPDVGLL [L T S P D V G L L]
The EC50 of the first is 2100-fold lower: 0.0129 µM for the first, 27.4 µM for the second. The first is the more potent here.

LPETKFSEL [L P E T K F S E L] and YAQPQTTTP [Y A Q P Q T T T P] are within 1.5-fold of each other in EC50: 6.37 µM for the first, 5.96 µM for the second.

Going from NCPEGYTSL to HLPETKFSE [H L P E T K F S E], the EC50 rises from 0.0724 µM to over 1000 µM.

Compared with ILSPRSKES [I L S P R S K E S], FAPYNKPSL [F A P Y N K P S L] is 480-fold lower in EC50: 292 µM for the first, 0.611 µM for the second.

Compared with NCPERIIAL [NCPERIIAL], VRPMRQWPL is 27-fold higher in EC50: 0.141 µM for the first, 3.8 µM for the second.

First: TDPWFHRSL
Second: IPEPAHAYA [I P E P A H A Y A]
The EC50 of the first is lower: 0.339 µM for the first, over 1000 µM for the second. The first is the more potent here.

Same assay, conditions: pBL50 / binder class as quoted in text

In the case of ILSPSKESV [peptide 17], the EC50 is reported as 1 to 31.6 µM.
